In one assay the target is PI3K-α (Homo sapiens, UniProt P42336). In words: PI3K-alpha fluorescence polarization assay. Conditions: read-out: IC50 PI3Kα.
A further assay concerns the target PI3K-γ (Homo sapiens, UniProt P48736). In words: PI3K-gamma fluorescence polarization assay. Particulars: read-out: IC50 PI3Kγ. (Fluorescence polarisation rises when a labelled molecule tumbles more slowly, as on binding a larger partner.)
The target of a further assay is Human mTOR (FLAG-TOR) (Homo sapiens, UniProt P42345). In words: mTOR kinase assay (DELFIA format, purified enzyme). Format: biochemical. Conditions: read-out: IC50 mTOR.
Chain of Human mTOR (FLAG-TOR) (P42345 1360-2549 limits assumed): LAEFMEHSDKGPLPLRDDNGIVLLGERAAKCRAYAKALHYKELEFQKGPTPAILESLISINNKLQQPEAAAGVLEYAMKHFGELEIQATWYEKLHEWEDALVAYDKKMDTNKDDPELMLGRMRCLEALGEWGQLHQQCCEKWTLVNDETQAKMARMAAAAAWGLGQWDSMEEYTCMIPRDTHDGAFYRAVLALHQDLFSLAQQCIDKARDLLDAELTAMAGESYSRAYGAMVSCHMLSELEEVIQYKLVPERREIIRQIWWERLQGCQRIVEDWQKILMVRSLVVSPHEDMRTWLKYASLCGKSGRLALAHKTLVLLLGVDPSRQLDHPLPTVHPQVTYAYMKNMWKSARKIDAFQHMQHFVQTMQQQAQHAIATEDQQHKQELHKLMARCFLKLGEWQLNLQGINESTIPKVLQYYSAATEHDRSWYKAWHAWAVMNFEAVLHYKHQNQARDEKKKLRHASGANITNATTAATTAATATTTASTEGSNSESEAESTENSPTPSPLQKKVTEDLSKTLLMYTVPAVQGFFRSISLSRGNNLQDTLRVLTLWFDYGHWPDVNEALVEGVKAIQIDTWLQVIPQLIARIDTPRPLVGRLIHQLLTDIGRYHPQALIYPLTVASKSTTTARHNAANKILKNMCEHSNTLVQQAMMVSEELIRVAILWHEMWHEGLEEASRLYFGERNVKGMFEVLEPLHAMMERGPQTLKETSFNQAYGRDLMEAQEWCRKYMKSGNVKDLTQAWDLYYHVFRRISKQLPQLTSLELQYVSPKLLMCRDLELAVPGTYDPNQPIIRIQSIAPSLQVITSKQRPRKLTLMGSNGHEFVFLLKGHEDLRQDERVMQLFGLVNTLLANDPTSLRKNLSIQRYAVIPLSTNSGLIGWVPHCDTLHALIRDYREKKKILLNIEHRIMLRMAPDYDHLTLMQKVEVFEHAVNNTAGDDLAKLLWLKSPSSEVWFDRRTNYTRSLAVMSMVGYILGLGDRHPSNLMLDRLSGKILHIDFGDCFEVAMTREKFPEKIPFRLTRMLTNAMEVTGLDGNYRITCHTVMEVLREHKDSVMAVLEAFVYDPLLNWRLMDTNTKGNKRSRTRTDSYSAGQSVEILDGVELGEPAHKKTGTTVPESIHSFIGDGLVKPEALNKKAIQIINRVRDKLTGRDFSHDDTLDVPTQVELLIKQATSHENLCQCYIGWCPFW

Chain of PI3K-α (P42336 whole entry, species assumed): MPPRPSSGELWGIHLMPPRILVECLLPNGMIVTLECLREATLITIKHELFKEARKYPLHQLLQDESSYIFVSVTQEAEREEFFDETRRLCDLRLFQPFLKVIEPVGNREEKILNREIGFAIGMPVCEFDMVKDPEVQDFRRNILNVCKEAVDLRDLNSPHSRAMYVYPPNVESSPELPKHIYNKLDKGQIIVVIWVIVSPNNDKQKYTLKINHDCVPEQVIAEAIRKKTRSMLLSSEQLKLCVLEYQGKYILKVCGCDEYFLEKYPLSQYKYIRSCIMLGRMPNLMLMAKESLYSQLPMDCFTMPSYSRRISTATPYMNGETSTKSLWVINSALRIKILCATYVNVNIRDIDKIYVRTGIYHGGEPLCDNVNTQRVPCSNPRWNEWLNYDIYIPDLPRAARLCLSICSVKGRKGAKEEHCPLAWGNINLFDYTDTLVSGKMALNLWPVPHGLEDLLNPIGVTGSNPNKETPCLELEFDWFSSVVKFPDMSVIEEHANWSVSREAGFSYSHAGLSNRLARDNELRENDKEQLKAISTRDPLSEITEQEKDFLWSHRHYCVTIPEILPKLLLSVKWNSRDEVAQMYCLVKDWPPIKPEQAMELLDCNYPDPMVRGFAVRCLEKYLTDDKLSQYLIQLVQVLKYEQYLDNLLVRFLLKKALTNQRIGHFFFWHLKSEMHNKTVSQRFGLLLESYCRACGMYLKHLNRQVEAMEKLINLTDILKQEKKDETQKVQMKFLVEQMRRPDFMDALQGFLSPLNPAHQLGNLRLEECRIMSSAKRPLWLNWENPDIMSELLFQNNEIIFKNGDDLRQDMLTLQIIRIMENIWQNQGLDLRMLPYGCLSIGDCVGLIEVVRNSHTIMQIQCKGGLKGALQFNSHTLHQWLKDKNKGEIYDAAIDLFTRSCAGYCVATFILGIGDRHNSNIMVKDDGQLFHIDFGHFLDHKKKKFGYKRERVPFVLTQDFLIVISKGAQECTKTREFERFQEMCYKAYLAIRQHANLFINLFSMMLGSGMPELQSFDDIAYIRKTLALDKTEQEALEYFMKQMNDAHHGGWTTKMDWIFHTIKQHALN
Chain of PI3K-α (P27986 whole entry partner, species assumed): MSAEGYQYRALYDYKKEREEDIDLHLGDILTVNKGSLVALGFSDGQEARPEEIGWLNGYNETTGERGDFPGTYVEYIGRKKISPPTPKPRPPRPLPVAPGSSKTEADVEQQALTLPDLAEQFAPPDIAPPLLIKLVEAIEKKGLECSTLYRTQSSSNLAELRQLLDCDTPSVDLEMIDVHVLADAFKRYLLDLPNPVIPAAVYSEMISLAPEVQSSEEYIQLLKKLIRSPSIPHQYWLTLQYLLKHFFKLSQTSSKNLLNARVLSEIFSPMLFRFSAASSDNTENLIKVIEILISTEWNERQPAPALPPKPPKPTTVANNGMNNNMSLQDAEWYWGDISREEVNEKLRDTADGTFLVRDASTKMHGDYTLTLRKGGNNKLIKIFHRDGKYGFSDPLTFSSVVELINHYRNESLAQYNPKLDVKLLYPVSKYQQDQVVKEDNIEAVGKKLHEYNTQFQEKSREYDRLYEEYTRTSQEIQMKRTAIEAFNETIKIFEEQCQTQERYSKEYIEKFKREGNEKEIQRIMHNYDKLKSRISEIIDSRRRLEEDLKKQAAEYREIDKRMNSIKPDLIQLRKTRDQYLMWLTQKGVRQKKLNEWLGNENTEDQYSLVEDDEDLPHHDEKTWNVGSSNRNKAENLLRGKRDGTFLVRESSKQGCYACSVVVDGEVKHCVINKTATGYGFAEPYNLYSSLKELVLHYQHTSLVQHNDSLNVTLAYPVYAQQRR
Chain of PI3K-γ (P48736 whole entry, species assumed): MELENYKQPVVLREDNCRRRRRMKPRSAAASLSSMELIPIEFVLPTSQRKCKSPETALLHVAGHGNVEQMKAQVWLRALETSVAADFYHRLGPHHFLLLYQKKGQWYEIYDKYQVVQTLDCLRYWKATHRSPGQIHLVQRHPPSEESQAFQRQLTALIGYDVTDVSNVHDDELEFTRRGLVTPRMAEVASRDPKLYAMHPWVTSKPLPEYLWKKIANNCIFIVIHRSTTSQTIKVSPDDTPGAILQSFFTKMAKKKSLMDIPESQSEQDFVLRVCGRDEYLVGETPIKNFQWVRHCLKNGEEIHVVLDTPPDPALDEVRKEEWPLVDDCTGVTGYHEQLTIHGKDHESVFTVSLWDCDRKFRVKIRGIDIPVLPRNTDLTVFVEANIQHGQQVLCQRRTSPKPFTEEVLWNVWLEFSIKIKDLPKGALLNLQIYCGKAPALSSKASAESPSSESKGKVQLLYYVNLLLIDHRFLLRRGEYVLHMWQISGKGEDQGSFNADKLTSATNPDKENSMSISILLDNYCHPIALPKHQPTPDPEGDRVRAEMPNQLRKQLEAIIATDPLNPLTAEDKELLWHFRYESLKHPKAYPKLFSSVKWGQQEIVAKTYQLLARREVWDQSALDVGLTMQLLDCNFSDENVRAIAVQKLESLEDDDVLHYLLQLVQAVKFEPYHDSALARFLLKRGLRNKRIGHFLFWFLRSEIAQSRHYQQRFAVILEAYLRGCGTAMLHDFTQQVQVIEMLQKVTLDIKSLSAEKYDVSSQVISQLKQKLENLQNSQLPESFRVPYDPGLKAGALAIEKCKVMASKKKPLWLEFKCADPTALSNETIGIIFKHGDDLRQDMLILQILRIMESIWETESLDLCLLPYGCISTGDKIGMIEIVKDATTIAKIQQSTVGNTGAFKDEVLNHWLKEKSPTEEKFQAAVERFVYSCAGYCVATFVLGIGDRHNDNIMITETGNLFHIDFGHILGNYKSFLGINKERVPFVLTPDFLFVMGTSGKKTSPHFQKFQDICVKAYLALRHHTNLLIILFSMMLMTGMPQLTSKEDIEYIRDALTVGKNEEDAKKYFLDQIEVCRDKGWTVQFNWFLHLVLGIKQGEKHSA

Usually IC50 stands for the midpoint of a concentration-inhibition curve. `Cc1ccc(-c2nc(-c3ccc(NC(=O)Nc4cccc(C(=O)N5CCN(C)CC5)c4)cc3)nc(N3CCOCC3)n2)cc1` [Example 576, 1-{4-[4-(4-methylphenyl)-6-morpholin-4-yl-1,3,5-triazin-2-yl]phenyl}-3-{3-[(4-methylpiperazin-1-yl)carbonyl]phenyl}urea]: the results for the IC50 at PI3K-α, on PI3K-γ and on Human mTOR (FLAG-TOR) were 761 nM, 2080 nM and 140 nM, respectively.

For `COC(=O)c1cccc(NC(=O)Nc2ccc(-c3nc(-c4ccc(C)cc4)nc(N4CCOCC4)n3)cc2)c1` [Example 578, methyl 3-[({4-[4-(4-methylphenyl)-6-morpholin-4-yl-1,3,5-triazin-2-yl]phenyl}carbamoyl)amino]benzoate], the IC50 is 2410 nM at PI3K-α, 2510 nM at PI3K-γ and 2100 nM on Human mTOR (FLAG-TOR).

For the compound `Cc1ccc(-c2nc(-c3ccc(NC(=O)Nc4cccc(C(=O)N(C)CCN(C)C)c4)cc3)nc(N3CCOCC3)n2)cc1` [Example 580, N-[2-(dimethylamino)ethyl]-N-methyl-3-[({4-[4-(4-methylphenyl)-6-morpholin-4-yl-1,3,5-triazin-2-yl]phenyl}carbamoyl)amino]benzamide], the IC50 at PI3K-α amounted to 465 nM; on PI3K-γ, 1320 nM; on Human mTOR (FLAG-TOR), 100 nM.

On to `CCc1nc(-c2ccc(NC(=O)Nc3cccc(C(=O)OC)c3)cc2)nc(N2CCOCC2)n1` [Example 581, methyl 3-({[4-(4-ethyl-6-morpholin-4-yl-1,3,5-triazin-2-yl)phenyl]carbamoyl}amino)benzoate], for which the values for the IC50 on PI3K-α, at PI3K-γ and at Human mTOR (FLAG-TOR) were 114 nM, 461 nM and 37 nM, respectively.

As for `COC(=O)c1cccc(NC(=O)Nc2ccc(-c3nc(-c4cccs4)nc(N4CCOCC4)n3)cc2)c1` [Example 582, methyl 3-({[4-(4-morpholin-4-yl-6-thiophen-2-yl-1,3,5-triazin-2-yl)phenyl]carbamoyl}amino)benzoate], the IC50 on PI3K-α is 513 nM; at PI3K-γ it was 1090 nM; on Human mTOR (FLAG-TOR) it was 230 nM.

In the case of `Cc1ccc(-c2nc(-c3ccc(NC(=O)Nc4cccc(C(=O)NCCN(C)C)c4)cc3)nc(N3CCOCC3)n2)cc1` [Example 583, N-[2-(dimethylamino)ethyl]-3-[({4-[4-(4-methylphenyl)-6-morpholin-4-yl-1,3,5-triazin-2-yl]phenyl}carbamoyl)amino]benzamide], the IC50 on PI3K-α turned out to be 123 nM; on PI3K-γ, 718 nM; on Human mTOR (FLAG-TOR), 48 nM.

In the case of `CCc1nc(-c2ccc(NC(=O)Nc3cccc(C(=O)O)c3)cc2)nc(N2CCOCC2)n1` [Example 585, 3-({[4-(4-ethyl-6-morpholin-4-yl-1,3,5-triazin-2-yl)phenyl]carbamoyl}amino)benzoic acid], the IC50 on PI3K-α is 65 nM; at PI3K-γ, 131 nM; at Human mTOR (FLAG-TOR), 12 nM.

For the compound `COC(=O)c1cccc(NC(=O)Nc2ccc(-c3nc(-c4ccccc4)nc(N4CCOCC4)n3)cc2)c1` [Example 586, methyl 3-({[4-(4-morpholin-4-yl-6-phenyl-1,3,5-triazin-2-yl)phenyl]carbamoyl}amino)benzoate], the IC50 on PI3K-α amounted to 947 nM; at PI3K-γ it was 1250 nM; on Human mTOR (FLAG-TOR), 365 nM.

Consider `CCc1nc(-c2ccc(NC(=O)Nc3cccc(C(=O)N4CCN(c5ccccn5)CC4)c3)cc2)nc(N2CCOCC2)n1` [Example 587, 1-[4-(4-ethyl-6-morpholin-4-yl-1,3,5-triazin-2-yl)phenyl]-3-{3-[(4-pyridin-2-ylpiperazin-1-yl)carbonyl]phenyl}urea], for which the IC50 on PI3K-α was 350 nM; at PI3K-γ, 675 nM; on Human mTOR (FLAG-TOR), 100 nM.

As for `CCc1nc(-c2ccc(NC(=O)Nc3cccc(C(=O)N(C)CCN(C)C)c3)cc2)nc(N2CCOCC2)n1` [Example 588, N-[2-(dimethylamino)ethyl]-3-({[4-(4-ethyl-6-morpholin-4-yl-1,3,5-triazin-2-yl)phenyl]carbamoyl}amino)-N-methylbenzamide], the IC50 at PI3K-α amounted to 524 nM; at PI3K-γ it was 2250 nM; on Human mTOR (FLAG-TOR), 54 nM.

In the case of `CCc1nc(-c2ccc(NC(=O)Nc3cccc(C(=O)N4CCN(C)CC4)c3)cc2)nc(N2CCOCC2)n1` [Example 589, 1-[4-(4-ethyl-6-morpholin-4-yl-1,3,5-triazin-2-yl)phenyl]-3-{3-[(4-methylpiperazin-1-yl)carbonyl]phenyl}urea], the figures for the IC50 on PI3K-α, at PI3K-γ and on Human mTOR (FLAG-TOR) were 718 nM, 1620 nM and 57 nM, respectively.

`O=C(Nc1ccc(-c2nc(-c3ccccc3)nc(N3CCOCC3)n2)cc1)Nc1cccc(C(=O)O)c1` [Example 590, 3-({[4-(4-morpholin-4-yl-6-phenyl-1,3,5-triazin-2-yl)phenyl]carbamoyl}amino)benzoic acid]: the IC50 on PI3K-α was 343 nM; at PI3K-γ it was 404 nM; at Human mTOR (FLAG-TOR), 49 nM.

On to `COC(=O)c1ccc(NC(=O)Nc2ccc(-c3nc(N4CCCCC4)nc(N4CCOCC4)n3)cc2)cc1` [Example 591, methyl 4-({[4-(4-morpholin-4-yl-6-piperidin-1-yl-1,3,5-triazin-2-yl)phenyl]carbamoyl}amino)benzoate], for which the IC50 on PI3K-α was 250 nM; at PI3K-γ, 726 nM; at Human mTOR (FLAG-TOR), 33 nM.

As to `COC(=O)c1ccc(NC(=O)Nc2ccc(-c3nc(N4CCCC4)nc(N4CCOCC4)n3)cc2)cc1` [Example 594, methyl 4-({[4-(4-morpholin-4-yl-6-pyrrolidin-1-yl-1,3,5-triazin-2-yl)phenyl]carbamoyl}amino)benzoate], the IC50 at PI3K-α worked out at 350 nM; on PI3K-γ it was 744 nM; on Human mTOR (FLAG-TOR), 22 nM.

As to `O=C(Nc1ccc(C(=O)O)cc1)Nc1ccc(-c2nc(N3CCCC3)nc(N3CCOCC3)n2)cc1` [Example 599, 4-({[4-(4-morpholin-4-yl-6-pyrrolidin-1-yl-1,3,5-triazin-2-yl)phenyl]carbamoyl}amino)benzoic acid], the results for the IC50 on PI3K-α, at PI3K-γ and on Human mTOR (FLAG-TOR) were 64.5 nM, 190 nM and 13 nM, respectively.

For `O=C(Nc1ccncc1)Nc1ccc(-c2nc(N3CCCC3)nc(N3CCOCC3)n2)cc1` [Example 600, 1-[4-(4-morpholin-4-yl-6-pyrrolidin-1-yl-1,3,5-triazin-2-yl)phenyl]-3-pyridin-4-ylurea], the IC50 is 45.5 nM at PI3K-α, 162 nM at PI3K-γ and 8 nM at Human mTOR (FLAG-TOR).

As for `C[C@H]1COCCN1c1nc(-c2ccc(NC(=O)Nc3ccc(C(=O)O)cc3)cc2)nc(N2CCOCC2)n1` [Example 619, 4-{[(4-{4-[(3S)-3-methylmorpholin-4-yl]-6-morpholin-4-yl-1,3,5-triazin-2-yl}phenyl)carbamoyl]amino}benzoic acid], the figures for the IC50 at PI3K-α, on PI3K-γ and on Human mTOR (FLAG-TOR) were 33 nM, 137 nM and 1 nM, respectively.

Regarding `C[C@@H]1COCCN1c1nc(-c2ccc(NC(=O)Nc3ccc(C(=O)O)cc3)cc2)nc(N2CCOC[C@@H]2C)n1` [Example 626, 4-{[(4-{4-[(3R)-3-methylmorpholin-4-yl]-6-[(3S)-3-methylmorpholin-4-yl]-1,3,5-triazin-2-yl}phenyl)carbamoyl]amino}benzoic acid], the IC50 was determined as 59 nM at PI3K-α, 208 nM on PI3K-γ and 1 nM at Human mTOR (FLAG-TOR).

For `CCCC1CCN(C(=O)c2ccc(NC(=O)Nc3ccc(-c4nc(N5CCOC[C@@H]5C)nc(N5CCOC[C@@H]5C)n4)cc3)cc2)CC1` [Example 636, 1-(4-{4,6-bis[(3S)-3-methylmorpholin-4-yl]-1,3,5-triazin-2-yl}phenyl)-3-{4-[(4-propylpiperidin-1-yl)carbonyl]phenyl}urea], the IC50 at PI3K-α turned out to be 231 nM; at PI3K-γ it was 468 nM; on Human mTOR (FLAG-TOR) it was 27 nM.

For the compound `O=C(Nc1ccncc1)Nc1ccc(-c2nc(N3CCOCC3)nc(N3CCN(C45CC6CC(CC(C6)C4)C5)CC3)n2)cc1` [Example 640, 1-{4-[4-morpholin-4-yl-6-(4-tricyclo[3.3.1.13,7]dec-1-ylpiperazin-1-yl)-1,3,5-triazin-2-yl]phenyl}-3-pyridin-4-ylurea], the values for the IC50 at PI3K-α, at PI3K-γ and on Human mTOR (FLAG-TOR) were 345 nM, 795 nM and 2800 nM, respectively.

Take `COC(=O)c1ccc(NC(=O)Nc2ccc(-c3nc(N4CCOCC4)nc(N4CCN(C(=O)N(C)C)CC4)n3)cc2)cc1` [Example 641, methyl 4-{[(4-{4-[4-(dimethylcarbamoyl)piperazin-1-yl]-6-morpholin-4-yl-1,3,5-triazin-2-yl}phenyl)carbamoyl]amino}benzoate]: the IC50 on PI3K-α came to 88.5 nM; at PI3K-γ, 276 nM; at Human mTOR (FLAG-TOR), 7 nM.

Regarding `CN(C)C(=O)N1CCN(c2nc(-c3ccc(NC(=O)Nc4ccncc4)cc3)nc(N3CCOCC3)n2)CC1` [Example 642, N,N-dimethyl-4-(4-morpholin-4-yl-6-{4-[(pyridin-4-ylcarbamoyl)amino]phenyl}-1,3,5-triazin-2-yl)piperazine-1-carboxamide], the IC50 turned out to be 69 nM on PI3K-α, 254 nM on PI3K-γ and 1 nM at Human mTOR (FLAG-TOR).

`CCCC1CCN(C(=O)c2ccc(NC(=O)Nc3ccc(-c4nc(N5CCOCC5)nc(N5CCN(C(=O)N(C)C)CC5)n4)cc3)cc2)CC1` [Example 645, N,N-dimethyl-4-(4-morpholin-4-yl-6-{4-[({4-[(4-propylpiperidin-1-yl)carbonyl]phenyl}carbamoyl)amino]phenyl}-1,3,5-triazin-2-yl)piperazine-1-carboxamide]: the IC50 at PI3K-α was determined as 105 nM; at PI3K-γ it was 230 nM; at Human mTOR (FLAG-TOR), 120 nM.

Turning to `CCS(=O)(=O)N1CCN(c2nc(-c3ccc(NC(=O)Nc4ccncc4)cc3)nc(N3CCOCC3)n2)CC1` [Example 650, 1-(4-{4-[4-(ethylsulfonyl)piperazin-1-yl]-6-morpholin-4-yl-1,3,5-triazin-2-yl}phenyl)-3-pyridin-4-ylurea], the IC50 at PI3K-α was determined as 23.5 nM; on PI3K-γ it was 104 nM; at Human mTOR (FLAG-TOR), 22 nM.

Source of the values: US20090304692A1, “TRIAZINE COMPOUNDS AS PI3 KINASE AND MTOR INHIBITORS” (Wyeth, priority 2008, published 2009).
